Assay results published in PubChem BioAssay AID328 (DTP/NCI, 2004).
Inconclusive results and toxic doses are left out. Rule for the calls: active = survival T/C of 150% or more; inactive = T/C below 125% in these data.

System: BDF1 mice, P388 leukemia ip, median survival T/C
Test: NCI In Vivo Anticancer Drug Screen. Data for tumor model P388 Leukemia (intraperitoneal) in B6D2F1 (BDF1) mice
Conditions: endpoint: median survival time, higher = longer survival
Procedure, shortened: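 Each value expresses how treatment altered survival: treated-mouse outcome over vehicle-mouse outcome, both groups bearing the transplanted tumour.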

Measured: T/C

CCc1nc(N)nc(N)c1-c1ccc(Cl)cc1
inactive: dose: 2.0 mg/kg/injection, schedule: Q03HX008 (ip), vehicle: Klucel (hydroxypropylcellulose) (HPC) 100 % of control | dose: 2.0 mg/kg/injection, schedule: Q03HX016 (ip), vehicle: Klucel (hydroxypropylcellulose) (HPC) 91 % of control | dose: 2.0 mg/kg/injection, schedule: Q03HX024 (ip), vehicle: Klucel (hydroxypropylcellulose) (HPC) 91 % of control | dose: 4.0 mg/kg/injection, schedule: Q01DX009 (ip), vehicle: Klucel (hydroxypropylcellulose) (HPC) 95 % of control | dose: 4.0 mg/kg/injection, schedule: Q01DX009 (sc), vehicle: Klucel (hydroxypropylcellulose) (HPC) 100 % of control | dose: 4.0 mg/kg/injection, schedule: Q03HX008 (ip), vehicle: Klucel (hydroxypropylcellulose) (HPC) 95 % of control | dose: 4.0 mg/kg/injection, schedule: Q03HX016 (ip), vehicle: Klucel (hydroxypropylcellulose) (HPC) 100 % of control | dose: 4.0 mg/kg/injection, schedule: Q03HX024 (ip), vehicle: Klucel (hydroxypropylcellulose) (HPC) 91 % of control | dose: 8.0 mg/kg/injection, schedule: Q01DX009 (ip), vehicle: Klucel (hydroxypropylcellulose) (HPC) 91 % of control | dose: 8.0 mg/kg/injection, schedule: Q01DX009 (sc), vehicle: Klucel (hydroxypropylcellulose) (HPC) 100 % of control | dose: 8.0 mg/kg/injection, schedule: Q01DX010 (ip), vehicle: saline 100 % of control | dose: 8.0 mg/kg/injection, schedule: Q03HX008 (ip), vehicle: Klucel (hydroxypropylcellulose) (HPC) 100 % of control | dose: 8.0 mg/kg/injection, schedule: Q03HX016 (ip), vehicle: Klucel (hydroxypropylcellulose) (HPC) 91 % of control | dose: 8.0 mg/kg/injection, schedule: Q03HX024 (ip), vehicle: Klucel (hydroxypropylcellulose) (HPC) 95 % of control | dose: 16.0 mg/kg/injection, schedule: Q01DX001 (ip), vehicle: Klucel (hydroxypropylcellulose) (HPC) 100 % of control | dose: 16.0 mg/kg/injection, schedule: Q01DX001 (oral), vehicle: Klucel (hydroxypropylcellulose) (HPC) 100 % of control | dose: 16.0 mg/kg/injection, schedule: Q01DX001 (sc), vehicle: Klucel (hydroxypropylcellulose) (HPC) 100 % of control | dose: 16.0 mg/kg/injection, schedule: Q01DX009 (ip), vehicle: Klucel (hydroxypropylcellulose) (HPC) 91 % of control | dose: 16.0 mg/kg/injection, schedule: Q01DX009 (oral), vehicle: Klucel (hydroxypropylcellulose) (HPC) 104 % of control | dose: 16.0 mg/kg/injection, schedule: Q01DX009 (sc), vehicle: Klucel (hydroxypropylcellulose) (HPC) 100 % of control | dose: 16.0 mg/kg/injection, schedule: Q01DX010 (ip), vehicle: saline 95 % of control | dose: 16.0 mg/kg/injection, schedule: Q03HX008 (ip), vehicle: Klucel (hydroxypropylcellulose) (HPC) 91 % of control | dose: 16.0 mg/kg/injection, schedule: Q03HX016 (ip), vehicle: Klucel (hydroxypropylcellulose) (HPC) 100 % of control | dose: 16.0 mg/kg/injection, schedule: Q03HX024 (ip), vehicle: Klucel (hydroxypropylcellulose) (HPC) 100 % of control | dose: 16.0 mg/kg/injection, schedule: Q04DX003 (ip), vehicle: Klucel (hydroxypropylcellulose) (HPC) 100 % of control | dose: 16.0 mg/kg/injection, schedule: Q08DX002 (ip), vehicle: Klucel (hydroxypropylcellulose) (HPC) 100 % of control | dose: 32.0 mg/kg/injection, schedule: Q01DX001 (ip), vehicle: Klucel (hydroxypropylcellulose) (HPC) 100 % of control | dose: 32.0 mg/kg/injection, schedule: Q01DX001 (oral), vehicle: Klucel (hydroxypropylcellulose) (HPC) 90 % of control | dose: 32.0 mg/kg/injection, schedule: Q01DX001 (sc), vehicle: Klucel (hydroxypropylcellulose) (HPC) 104 % of control | dose: 32.0 mg/kg/injection, schedule: Q01DX009 (ip), vehicle: Klucel (hydroxypropylcellulose) (HPC) 95 % of control | dose: 32.0 mg/kg/injection, schedule: Q01DX009 (sc), vehicle: Klucel (hydroxypropylcellulose) (HPC) 100 % of control | dose: 32.0 mg/kg/injection, schedule: Q01DX010 (ip), vehicle: saline 90 % of control | dose: 32.0 mg/kg/injection, schedule: Q04DX003 (ip), vehicle: Klucel (hydroxypropylcellulose) (HPC) 100 % of control | dose: 32.0 mg/kg/injection, schedule: Q08DX002 (ip), vehicle: Klucel (hydroxypropylcellulose) (HPC) 95 % of control | dose: 64.0 mg/kg/injection, schedule: Q01DX001 (ip), vehicle: Klucel (hydroxypropylcellulose) (HPC) 100 % of control | dose: 64.0 mg/kg/injection, schedule: Q01DX001 (oral), vehicle: Klucel (hydroxypropylcellulose) (HPC) 104 % of control | dose: 64.0 mg/kg/injection, schedule: Q01DX001 (sc), vehicle: Klucel (hydroxypropylcellulose) (HPC) 109 % of control | dose: 64.0 mg/kg/injection, schedule: Q01DX009 (ip), vehicle: Klucel (hydroxypropylcellulose) (HPC) 116 % of control | dose: 64.0 mg/kg/injection, schedule: Q01DX009 (sc), vehicle: Klucel (hydroxypropylcellulose) (HPC) 113 % of control | dose: 64.0 mg/kg/injection, schedule: Q01DX010 (ip), vehicle: saline 90 % of control | dose: 64.0 mg/kg/injection, schedule: Q04DX003 (ip), vehicle: Klucel (hydroxypropylcellulose) (HPC) 100 % of control | dose: 64.0 mg/kg/injection, schedule: Q08DX002 (ip), vehicle: Klucel (hydroxypropylcellulose) (HPC) 91 % of control | dose: 128.0 mg/kg/injection, schedule: Q01DX001 (ip), vehicle: Klucel (hydroxypropylcellulose) (HPC) 100 % of control | dose: 128.0 mg/kg/injection, schedule: Q01DX001 (oral), vehicle: Klucel (hydroxypropylcellulose) (HPC) 100 % of control | dose: 128.0 mg/kg/injection, schedule: Q01DX001 (sc), vehicle: Klucel (hydroxypropylcellulose) (HPC) 100 % of control | dose: 128.0 mg/kg/injection, schedule: Q04DX003 (ip), vehicle: Klucel (hydroxypropylcellulose) (HPC) 100 % of control | dose: 128.0 mg/kg/injection, schedule: Q08DX002 (ip), vehicle: Klucel (hydroxypropylcellulose) (HPC) 100 % of control
